Data: ChEMBL document CHEMBL4145498, “Novel inhibitors of the rRNA ErmC' methyltransferase to block resistance to macrolides, lincosamides, streptogramine B antibiotics” (Eur J Med Chem, 2018)

Tests used:
Escherichia coli = assay: Antibacterial activity against Escherichia coli DH5alpha expressing recombinant bacterial ErmC' after 18 hrs by dilution method; type: ADME, organism-based, DH5[alpha]
[1] = target: T1, rRNA adenine N-6-methyltransferase (Staphylococcus aureus (strain N315)) (UniProt P0A0H2); assay: Inhibition of recombinant bacterial ErmC' expressed in Escherichia coli DH5alpha assessed as potentiation of erythromycin-mediated growth inhibition by measuring erythromycin MIC after 18 hrs by dilution method (reference value: > 2560 mg/L); conditions: Bacteria
T1 sequence (whole entry): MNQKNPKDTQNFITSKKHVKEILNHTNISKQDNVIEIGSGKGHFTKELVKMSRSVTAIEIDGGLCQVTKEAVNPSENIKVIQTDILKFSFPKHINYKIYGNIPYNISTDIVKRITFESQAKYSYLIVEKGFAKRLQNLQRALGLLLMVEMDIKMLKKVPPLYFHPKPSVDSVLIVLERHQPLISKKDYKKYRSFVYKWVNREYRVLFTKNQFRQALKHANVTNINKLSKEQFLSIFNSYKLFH

[2] = target: T2, rRNA adenine N-6-methyltransferase (Staphylococcus aureus (strain N315), UniProt P0A0H2); assay: Inhibition of bacterial C-terminal His6-tagged ErmC' (unknown origin) expressed in Escherichia coli BL21(DE3) assessed as decrease in rRNA methylation using [methyl-3H]AdoMet measured after 1 hr; parameters: species or system Bacteria
T2 sequence (P0A0H2 whole entry): T1 sequence (whole entry)

HEK293 = assay: Cytotoxicity against HEK293 cells assessed as decrease in cell viability after 24 hrs by MTT assay; type: cell-based; conditions: human, hek293, 24 h
[3] = Cytotoxicity against HEK293 cells assessed as cell viability at 125 uM after 24 hrs by MTT assay relative to control; type: cell-based; conditions: human, read-out: Activity
[4] = Cytotoxicity against HEK293 cells assessed as cell viability at 1000 uM after 24 hrs by MTT assay relative to control; type: cell-based; conditions: human, read-out: Activity
[5] = target: T1, rRNA adenine N-6-methyltransferase (Staphylococcus aureus (strain N315)); assay: Uncompetitive inhibition of bacterial C-terminal His6-tagged ErmC' expressed in Escherichia coli BL21(DE3) in presence of [methyl-3H]SAM; conditions: Bacteria
[6] = Cytotoxicity against HEK293 cells assessed as cell viability at 125 to 1000 uM after 24 hrs by MTT assay relative to control; type: cell-based; conditions: human
[7] = target: T1, rRNA adenine N-6-methyltransferase (Staphylococcus aureus (strain N315)); assay: Inhibition of bacterial C-terminal His6-tagged ErmC' expressed in Escherichia coli BL21(DE3) assessed as decrease of protein binding to [gamma-33P]ATP-labeled 32-nt oligonucleotide at 6.25 mM after 30 mins by filter binding assay relative to control; conditions: Bacteria
[8] = target: rRNA adenine N-6-methyltransferase (Staphylococcus aureus, UniProt P02979); assay: Inhibition of Staphylococcus aureus ErmC' expressed in Bacillus subtilis BD170 assessed as decrease in rRNA methylation using [methyl-3H]AdoMet measured after 120 mins by beta-plate counting method
[9] = target: T1, rRNA adenine N-6-methyltransferase (Staphylococcus aureus (strain N315)); assay: Inhibition of bacterial C-terminal His6-tagged ErmC' expressed in Escherichia coli BL21(DE3) assessed as decrease of protein binding to [gamma-33P]ATP-labeled 32-nt oligonucleotide at 5.01 mM after 30 mins by filter binding assay relative to control; conditions: Bacteria

| Compound | MIC (Escherichia coli) | MIC [1] [µg/mL] | also measured |
| --- | --- | --- | --- |
| O=C(c1cc(C2CC2)n[nH]1)N1CCN(c2ccc(C(F)(F)F)cn2)CC1 | >= 100 mg/L | 2560 | – |
| Cc1nccn1-c1ccc(CNc2nc3ccccc3o2)cc1F | >= 100 mg/L | 2000 | IC50 [2]: Not Active |
| O=C(NCCOc1ccc2c(c1)OCO2)c1ccc2ccccc2n1 | >= 100 mg/L | > 2560 | – |
| O=C(NCc1cccc(Cn2ccnc2)c1)c1cc2ccccc2o1 | >= 100 mg/L | > 2560 | – |
| O=C(c1cc(Cl)c[nH]1)N1CCN(c2ncc(C(F)(F)F)cc2Cl)CC1 | >= 100 mg/L | 2000 | – |
| Cc1cccc(Nc2nc(C(=O)N3CCN(c4ccc(C(F)(F)F)cn4)CC3)cs2)n1 | >= 100 mg/L | 2560 | Activity (HEK293): Dose-dependent effect; viability at 24 h, 125 µM [3]: 59%; viability at 24 h, 1000 µM [4]: 16%; alphaKi [5]: 155 µM |
| O=C(CSc1nc2[nH]cnc2c(=O)[nH]1)Nc1ccc(O)cc1 | >= 100 mg/L | 2560 | IC50 [2]: Not Active |
| FC(F)(F)c1ccc(N2CCN(Cc3c[nH]c(-c4ccccc4)n3)CC2)nc1 | >= 100 mg/L | 2560 | – |
| Nn1c(SCc2nc3ccccc3[nH]2)nnc1-c1ccncc1 | >= 100 mg/L | > 2560 | – |
| O=C(Cc1cn2ccsc2n1)Nc1cccc(N2CCCC2=O)c1 | >= 100 mg/L | 2560 | – |
| O=C(NC1CCN(c2nc3ccccc3s2)CC1)c1ccncc1 | >= 100 mg/L | 2560 | – |
| Cc1nccc(C(=O)Nc2cc(NC(=O)c3ccccc3)ccc2C)n1 | >= 100 mg/L | 2560 | IC50 [2]: Not Active |
| COC(=O)c1sc2ccccc2c1OS(=O)(=O)c1ccc(Cl)cc1 | – | – | fold change (FC) [7]: 3 |
| CC(C)c1ccc(NC(=S)N/N=C/c2cc(Cl)cc(Cl)c2O)cc1 | – | – | IC50 [8]: 450 nM |
| O=C(c1ccn[nH]1)N1CCN(c2ccc(C(F)(F)F)cn2)CC1 | >= 100 mg/L | 2560 | IC50 [2]: Not Active |
| Nc1nc(N)nc(COC(=O)c2occc2COc2ccccc2)n1 | >= 100 mg/L | 2560 | IC50 [2]: Not Active |
| O=C(c1cnn[nH]1)N1CCN(c2ccc(C(F)(F)F)cn2)CC1 | >= 100 mg/L | 2560 | – |
| CC(=O)c1c[nH]c(C(=O)N2CCN(c3ccc(C(F)(F)F)cn3)CC2)c1 | >= 100 mg/L | 2560 | – |
| O=C(NCCNc1ncccc1C(F)(F)F)c1cnccn1 | >= 100 mg/L | 2560 | IC50 [2]: Not Active |
| O=C(Nc1ccncc1)c1ccn(COc2ccc(F)c(Cl)c2)n1 | >= 100 mg/L | 2000 | – |
| COc1ccc(C(=O)CSc2nc(O)cc(=O)[nH]2)cc1 | >= 100 mg/L | 2000 | – |
| O=C(c1n[nH]c(=O)[nH]1)N1CCN(c2ccc(C(F)(F)F)cn2)CC1 | >= 100 mg/L | 2560 | – |
| Cc1occc1C(=O)Nc1nc(CC(=O)Nc2ccccc2)cs1 | >= 100 mg/L | 2560 | – |
| CC(=O)Nc1ccc(S(=O)(=O)NCCc2ccncc2)cc1 | >= 100 mg/L | > 2560 | – |
| Cc1cnc(C(=O)NCCNc2ncccc2C(F)(F)F)cn1 | >= 100 mg/L | 2560 | IC50 [2]: Not Active |
| O=C(c1c[nH]c(=O)[nH]1)N1CCN(c2ccc(C(F)(F)F)cn2)CC1 | >= 100 mg/L | 2560 | viability at 24 h, 125 µM [3]: 58%; viability at 24 h, 1000 µM [4]: 68%; fold change (FC) [9]: 2 |
| Nc1nc(N)nc(CSc2nnc(NCc3ccccc3)s2)n1 | >= 100 mg/L | 2560 | – |
| O=C(c1csc(Nc2ncccn2)n1)N1CCN(c2ccc(C(F)(F)F)cn2)CC1 | >= 100 mg/L | 2000 | viability at 24 h, up to 1000 µM ([6]; read-out: Activity): 59 to 67% |
| Cc1cc(S(N)(=O)=O)cc(NC(=O)Cn2cnc(C#N)n2)c1C | >= 100 mg/L | 2560 | IC50 [2]: Not Active |
| O=C(Nc1ccn(CCc2ccncc2)n1)Nc1ccc(F)cc1F | >= 100 mg/L | > 2560 | – |

Continued, in another order:

| MIC (Escherichia coli) | MIC [1] [µg/mL] | Compound | also measured |
| --- | --- | --- | --- |
| >= 100 mg/L | 2000 | CN(C)c1ccc(CNC(=O)c2ccc(-n3cncn3)cc2)cc1 | – |
| >= 100 mg/L | 2560 | O=C(Nc1nccs1)c1cc(-c2ccccn2)nc2ccccc12 | – |
| >= 100 mg/L | 2560 | O=C(CCn1cncn1)NCc1cccc(NC(=O)C2CCCC2)c1 | IC50 [2]: Not Active |
| >= 100 mg/L | 2560 | Cc1cnc(C(=O)NCCNc2ccc(C(F)(F)F)cn2)cn1 | IC50 [2]: Not Active |
| >= 100 mg/L | 2000 | CC(=O)Nc1nc(C)c(-c2csc(Nc3cccc(O)c3)n2)s1 | viability at 24 h, up to 1000 µM ([6]; read-out: %max): 4.5% |
| >= 100 mg/L | 2560 | Cn1cnnc1-c1cccc(NC(=O)Cc2cccc(F)c2)c1 | – |
| >= 100 mg/L | 2000 | O=C(NCCNc1ccc(C(F)(F)F)cn1)c1cnccn1 | IC50 [2]: Not Active |
| >= 100 mg/L | 2000 | O=C(CSc1nc2cccnc2[nH]1)Nc1nccs1 | – |
| >= 100 mg/L | 2560 | O=C(Nc1cccc(NC(=O)c2cccc(F)c2)c1)c1ccncc1 | – |
| >= 100 mg/L | 2560 | O=C(Cc1cccc(F)c1)Nc1cccc(-c2ccn[nH]2)c1 | – |
| >= 100 mg/L | > 2560 | CCCc1cc(C(=O)Nc2cccc(OCc3ccncc3)c2)[nH]n1 | – |
| >= 100 mg/L | 2560 | O=C(c1cn(-c2ccccc2)nn1)N1CCN(c2ccc(C(F)(F)F)cn2)CC1 | – |
| >= 100 mg/L | 2560 | O=C(CSc1nnc2c(n1)[nH]c1ccccc12)Nc1ccccn1 | – |
| >= 100 mg/L | 2560 | O=C(Nc1cccc(NCc2ccncc2)c1)c1ccccc1Cl | – |
| >= 100 mg/L | 2000 | CCC1N=C(C)C(CN2CCN(c3ccc(C(F)(F)F)cn3)CC2)=N1 (stereo not drawn) | IC50 [2]: Not Active |
| >= 100 mg/L | 2560 | O=C(NCCSc1ccccc1)c1ccc(-n2cncn2)cc1 | – |
| >= 100 mg/L | 2560 | FC(F)(F)c1ccc(N2CCN(Cc3cn4ccccc4n3)CC2)nc1 | – |
